Structures can show the parent of a compound that is named as a salt.
Tests used:
Type in all cases: biochemical
Conditions in all cases: class symbols
[1] = biological target: CDK6/cyclin D3 (Homo sapiens (Human), UniProt Q00534); test: Kinase activity assay, Caliper Mobility Shift Assay, CDK6/cyclin D3
[2] = biological target: CDK4/cyclin D3 (Homo sapiens (Human), UniProt P11802); test: Kinase activity assay, Caliper Mobility Shift Assay, CDK4/cyclin D3
Protocol: The inhibitory effect of the compound on the kinase CDK4/cyclin D3 was tested by the Caliper Mobility Shift Assay method. The final test concentration of the compound was 10 concentrations, which started from […] and were obtained by three-fold dilution. 5 μL of 5-fold final concentration compound and 10 μL of CDK4/Cyclin D3 kinase solution with final concentration of 10 nM were added to the 384-well reaction plate respectively, and pre incubated at room temperature for 10 minutes (the negative control well contained 10 μL kinase buffer and 5 μL 5% DMSO; the positive control well contained 10 μL kinase solution and 5 μL 5% DMSO). The mixture of 10 μL ATP with a final concentration of 250 μM and the corresponding substrate peptide was added to initiate the reaction, and the mixture was reacted at room temperature for 150 minutes. 30 μL of stop test solution containing EDTA was added to stop the kinase reaction. Conversion rate was read by Caliper EZ Reader. Conversion inhibition rate %=(average conversion rate of positive control %−sample conversion rate %)/(average conversion rate of positive control %−average conversion rate of negative control %). Wherein: the negative control well represents conversion rate reading of wells without enzyme activity; the positive control well represents conversion rate reading of wells without compound inhibition. The log value of concentration was taken as the X-axis and the percentage inhibition rate was the Y-axis. […] Calculation formula: Y=Bottom+(Top−Bottom)/(1+10^((Log IC50−X)*HillSlope)).

[3] = biological target: CDK2/cyclin A2 (Homo sapiens (Human), UniProt P24941); test: Kinase activity assay, Caliper Mobility Shift Assay, CDK2/cyclin A2
Protocol: The inhibitory effect of the compound on the kinase CDK4/cyclin D3 was tested by the Caliper Mobility Shift Assay method. The final test concentration of the compound was 10 concentrations, which started from […] and were obtained by three-fold dilution. 5 μL of 5-fold final concentration compound and 10 μL of CDK4/Cyclin D3 kinase solution with final concentration of 10 nM were added to the 384-well reaction plate respectively, and pre incubated at room temperature for 10 minutes (the negative control well contained 10 μL kinase buffer and 5 μL 5% DMSO; the positive control well contained 10 μL kinase solution and 5 μL 5% DMSO). The mixture of 10 μL ATP with a final concentration of 250 μM and the corresponding substrate peptide was added to initiate the reaction, and the mixture was reacted at room temperature for 150 minutes. 30 μL of stop test solution containing EDTA was added to stop the kinase reaction. Conversion rate was read by Caliper EZ Reader. Conversion inhibition rate %=(average conversion rate of positive control %−sample conversion rate %)/(average conversion rate of positive control %−average conversion rate of negative control %). Wherein: the negative control well represents conversion rate reading of wells without enzyme activity; the positive control well represents conversion rate reading of wells without compound inhibition. The log value of concentration was taken as the X-axis and the percentage inhibition rate was the Y-axis. The dose-effect curve was fitted by log(inhibitor) vs. response—Variable slope of the analysis software GraphPad Prism 5, and the IC50 value of each compound on the enzyme activity was obtained. Calculation formula: Y=Bottom+(Top−Bottom)/(1+10^((Log IC50−X)*HillSlope)).
The IC50 values of the compounds of the present disclosure for CDK6/cyclin D3 and CDK2/cyclin A2 were tested in a similar manner.

CDK6/cyclin D3, sequence (Q00534 whole entry, species assumed): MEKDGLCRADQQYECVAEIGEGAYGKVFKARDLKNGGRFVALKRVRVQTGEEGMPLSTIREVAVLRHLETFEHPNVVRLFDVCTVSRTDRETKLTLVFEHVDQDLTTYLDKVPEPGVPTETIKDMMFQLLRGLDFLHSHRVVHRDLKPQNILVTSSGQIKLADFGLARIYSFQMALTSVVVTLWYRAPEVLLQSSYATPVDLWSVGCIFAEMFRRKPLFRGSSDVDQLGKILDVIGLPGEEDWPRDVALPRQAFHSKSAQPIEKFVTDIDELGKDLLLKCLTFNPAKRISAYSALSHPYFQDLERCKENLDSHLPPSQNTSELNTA
CDK6/cyclin D3, sequence (P30281 whole entry partner, species assumed): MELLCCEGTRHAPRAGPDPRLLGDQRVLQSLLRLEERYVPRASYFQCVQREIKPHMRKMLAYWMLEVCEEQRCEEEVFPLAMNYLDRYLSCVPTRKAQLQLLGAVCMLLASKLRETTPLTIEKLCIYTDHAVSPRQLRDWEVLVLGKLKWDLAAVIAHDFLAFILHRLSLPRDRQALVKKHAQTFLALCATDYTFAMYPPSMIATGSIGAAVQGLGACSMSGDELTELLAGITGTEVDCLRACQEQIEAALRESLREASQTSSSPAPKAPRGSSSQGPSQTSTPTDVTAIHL
CDK4/cyclin D3, sequence (P11802 whole entry, species assumed): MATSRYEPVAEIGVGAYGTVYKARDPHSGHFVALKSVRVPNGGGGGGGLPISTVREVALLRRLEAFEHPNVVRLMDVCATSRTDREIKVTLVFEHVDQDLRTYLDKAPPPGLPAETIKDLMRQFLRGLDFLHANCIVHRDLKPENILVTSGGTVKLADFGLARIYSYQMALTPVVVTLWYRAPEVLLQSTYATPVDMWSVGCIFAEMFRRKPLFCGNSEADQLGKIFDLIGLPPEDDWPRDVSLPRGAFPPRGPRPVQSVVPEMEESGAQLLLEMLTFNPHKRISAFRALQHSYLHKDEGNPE
CDK4/cyclin D3, sequence (P30281 whole entry partner, species assumed): as the sequence (P30281 whole entry partner, species assumed) above

IC50 [1] [nM] | IC50 [2] [nM] | IC50 [3] [nM] | Compound
10 to 50 | < 10 |  | CC(C)n1nnc2ccc3cnc(Nc4ccc(N5CC6(CCNCC6)C5)cn4)nc3c21 [Compound I-17, N-(5-(2,7-Diazaspiro[3.5]nonan-2-yl)pyridin-2-yl)-1-isopropyl-1H-[1,2,3]tri-azolo[4,5-h]quinazolin-8-amine hydrochloride]
10 to 50 | < 10 |  | CC(C)n1nnc2ccc3cnc(Nc4ccc(N5CCNCC5)nn4)nc3c21 [Compound I-13, 1-Isopropyl-N-(6-(piperazin-1-yl)pyri-dazin-3-yl)-1H-[1,2,3]triazolo[4,5-h]quin-azolin-8-amine hydrochloride]
10 to 50 | < 10 |  | CC(C)n1nnc2ccc3cnc(Nc4ccc(N5CCOCC5)cn4)nc3c21 [Compound I-6, 1-Isopropyl-N-(5-morpholinopyridin-2-yl)-1H-[1,2,3]triazolo[4,5-h]quinazo-lin-8-amine hydrochloride]
< 10 | < 10 |  | Cc1nc(Nc2ncc3ccc4nnn(C(C)C)c4c3n2)ccc1N1CCNCC1 [Compound I-3, 1-Isopropyl-N-(6-methyl-5-(piperazin-1-yl)pyridin-2-yl)-1H-[1,2,3]triazolo[4,5-h]quinazolin-8-amine hydrochloride]
< 10 | < 10 |  | CC(C)N1CCN(c2ccc(Nc3ncc4ccc5nnn(C(C)C)c5c4n3)nc2)CC1 [Compound I-7, 1-Isopropyl-N-(5-(4-isopropylpiperazin-1-yl)pyridin-2-yl)-1H-[1,2,3]triazolo [4,5-h]quinazolin-8-amine hydrochloride]
< 10 | < 10 | < 10 | CC(C)n1nnc2ccc3cnc(Nc4ccc(N5CCN(C)CC5)c(F)c4)nc3c21 [Compound I-33, N-(3-Fluoro-4-(4-methylpiperazin-1-yl)phenyl)-1-isopropyl-1H-[1,2,3]triazolo[4,5-h]quinazolin-8-amine]
10 to 50 | 10 to 50 | 10 to 50 | CC(C)n1nnc2ccc3cnc(Nc4ccc(N5CCOCC5)c(F)c4)nc3c21 [Compound I-35, N-(3-Fluoro-4-morpholinophenyl)-1-iso-propyl-1H-[1,2,3]triazolo[4,5-h]quinazo-lin-8-amine hydrochloride]
< 10 | < 10 |  | CC(C)n1nnc2ccc3cnc(Nc4ccc(N5CCNCC5)cn4)nc3c21 [Compound I-1, 1-Isopropyl-N-(5-(piperazin-1-yl)pyridin-2-yl)-1H-[1,2,3]triazolo[4,5-h]quinazolin-8-amine hydrochloride]
10 to 50 | < 10 |  | CC(C)Cn1nnc2ccc3cnc(Nc4ccc(N5CCNCC5)cn4)nc3c21 [Compound I-18, 1-Isobutyl-N-(5-(piperazin-1-yl)pyridin-2-yl)-1H-[1,2,3]triazolo[4,5-h]quina-zolin-8-amine]
< 10 | < 10 |  | CC(C)CN1CCN(c2ccc(Nc3ncc4ccc5nnn(C(C)C)c5c4n3)nc2)CC1 [Compound I-9, N-(5-(4-Isobutylpiperazin-1-yl)pyridin-2-yl)-1-isopropyl-1H-[1,2,3]triazolo [4,5-h]quinazolin-8-amine hydrochloride]
50 to 100 | 10 to 50 |  | Cc1cc(Nc2ncc3ccc4nnn(C(C)C)c4c3n2)ncc1N1CCNCC1 [Compound I-2, 1-Isopropyl-N-(4-methyl-5-(piperazin-1-yl)pyridin-2-yl)-1H-[1,2,3]triazolo[4,5-h]quinazolin-8-amine hydrochloride]
< 10 | < 10 |  | CC(C)n1nnc2ccc3cnc(Nc4ccc(N5CCN(C)CC5)cn4)nc3c21 [Compound I-4, 1-Isopropyl-N-(5-(4-methylpiperazin-1-yl)pyridin-2-yl)-1H-[1,2,3]triazolo[4,5-h]quinazolin-8-amine hydrochloride]
< 10 | < 10 |  | CC(C)n1nnc2ccc3cnc(Nc4ccc(N5CCC(N(C)C)CC5)cn4)nc3c21 [Compound I-11, N-(5-(4-(Dimethylamino)piperidin-1-yl)pyridin-2-yl)-1-isopropyl-1H-[1,2,3] triazolo[4,5-h]quinazolin-8-amine hydrochloride]
10 to 50 | < 10 |  | CCN1CCN(Cc2ccc(Nc3ncc4ccc5nnn(C(C)C)c5c4n3)nc2)CC1 [Compound I-10, N-(5-((4-Ethylpiperazin-1-yl)methyl)pyridin-2-yl)-1-isopropyl-1H-[1,2,3]tri-azolo[4,5-h]quinazolin-8-amine hydrochloride]
50 to 100 | 10 to 50 |  | CC(C)Cn1nnc2ccc3cnc(Nc4ccc(N5CCOCC5)cn4)nc3c21 [Compound I-21, 1-Isobutyl-N-(5-morpholinopyridin-2-yl)-1H-[1,2,3]triazolo[4,5-h]quinazolin-8-amine]
10 to 50 | < 10 |  | CC(C)n1nnc2ccc3cnc(Nc4ccc(N5CCNCC5=O)cn4)nc3c21 [Compound I-14, 1-(6-((1-Isopropyl-1H-[1,2,3]triazolo[4,5-h]quinazolin-8-yl)amino)pyridin-3-yl)piperazin-2-one hydrochloride]
10 to 50 | < 10 |  | CC(C)Cn1nnc2ccc3cnc(Nc4ccc(N5CCN(C)CC5)cn4)nc3c21 [Compound I-19, 1-Isobutyl-N-(5-(4-methylpiperazin-1-yl)pyridin-2-yl)-1H-[1,2,3]triazolo[4,5-h]quinazolin-8-amine hydrochloride]
< 10 | < 10 |  | CC(C)n1nnc2ccc3cnc(Nc4ccc(C5CCNCC5)cn4)nc3c21 [Compound I-12, 1-Isopropyl-N-(5-(piperidin-4-yl)pyri-din-2-yl)-1H-[1,2,3]triazolo[4,5-h]quin-azolin-8-amine hydrochloride]
< 10 | < 10 |  | COc1ccc2cc(Nc3ncc4ccc5nnn(C(C)C)c5c4n3)ccc2n1 [Compound I-16, 1-Isopropyl-N-(2-methoxyquinolin-6-yl)-1H-[1,2,3]triazolo[4,5-h]quinazolin-8-amine hydrochloride]
10 to 50 | < 10 |  | CN1CCN(c2ccc(Nc3ncc4ccc5nnn(C6CCCC6)c5c4n3)nc2)CC1 [Compound I-23, 1-Cyclopentyl-N-(5-(4-methylpiperazin-1-yl)pyridin-2-yl)-1H-[1,2,3]triazolo[4,5-h] quinazolin-8-amine]
10 to 50 | < 10 |  | CC(C)n1nnc2ccc3cnc(Nc4ccc(N5CCN(C6CC6)CC5)cn4)nc3c21 [Compound I-8, N-(5-(4-Cyclopropylpiperazin-1-yl)py-ridin-2-yl)-1-isopropyl-1H-[1,2,3]tri-azolo[4,5-h]quinazolin-8-amine hydrochloride]
< 10 | < 10 |  | CCN1CCN(c2ccc(Nc3ncc4ccc5nnn(C(C)C)c5c4n3)nc2)CC1 [Compound I-5, N-(5-(4-Ethylpiperazin-1-yl)pyridin-2-yl)-1-isopropyl-1H-[1,2,3]triazolo[4,5-h]quinazolin-8-amine hydrochloride]
10 to 50 | < 10 |  | CCN1CCN(c2ccc(Nc3ncc4ccc5nnn(CC(C)C)c5c4n3)nc2)CC1 [Compound I-20, N-(5-(4-Ethylpiperazin-1-yl)pyridin-2-yl)-1-isobutyl-1H-[1,2,3]triazolo[4,5-h] quinazolin-8-amine]
10 to 50 | < 10 |  | CC(C)n1nnc2ccc3cnc(Nc4ccc(N5CCS(=O)(=O)CC5)cn4)nc3c21 [Compound I-15, 4-(6-((1-Isopropyl-1H-[1,2,3]triazolo[4,5-h]quinazolin-8-yl)amino)pyridin-3-yl)thiomorpholine 1,1-dioxide hydrochloride]
< 10 | < 10 |  | c1cc(Nc2ncc3ccc4nnn(C5CCCC5)c4c3n2)ncc1N1CCNCC1 [Compound I-22, 1-Cyclopentyl-N-(5-(piperazin-1-yl)pyridin-2-yl)-1H-[1,2,3]triazolo[4,5-h]quinazolin-8-amine hydrochloride]

Source: US12312355B2, “1H-[1, 2, 3]triazolo[4, 5-h] quinazoline compounds acting as protein kinase inhibitors” (CHENGDU CYNOGEN BIO-PHARMACEUTICAL TECHNOLOGY CO., LTD., priority 2019, dated 2025)
